The results in this text go back to article PMC5507300, “Antibacterial small molecules targeting the conserved TOPRIM domain of DNA gyrase” (PLoS ONE, 2017).

The test system of assay [1] is E. coli HS151 (qnrVC). Description: Broth microdilution MIC, E. coli HS151 (qnrVC). The format is cell-based. The text has this: (§1) E. coli HS151 (ΔtolC) has been described previously. Gyrase inhibitor-resistant isolates (GYR101-108) were derived by selection for spontaneous resistance to MRL-770 or MRL-423 (Fig 1) in E. coli HS151 as described below. E. coli BW25113 and the Keio gene deletion collection based on BW25113 [25] were obtained from Thermo Fisher Scientific (Waltham, MA) and described in [26]. The plasmid-borne FQ resistance determinant, qnrVC3 [27], was kindly provided by D. Hooper (Massachusetts General Hospital). MB9796 (A. baumannii) is a derivative of MB9797 (ATCC19606) lacking lipopolysaccharide. The efflux-defective P. aeruginosa strain MB5890 (CB398) is a derivative of MB5919 (PAO1). MB2884 (E. coli) and CL15245 (K. pneumoniae) are clinical isolates from the Merck & Co., Inc., Kenilworth, NJ, USA, strain collection. S. aureus COL is a methicillin-resistant clinical isolate.
(§2) Compound doubling dilutions were prepared in 100% DMSO (Sigma Aldrich) and 2 μL of each dilution was transferred to a 96-well plate with lid (Thermo Scientific). Inoculum for all MIC testing was prepared using the BBL Prompt Inoculation System (Becton Dickinson, Franklin Lakes, NJ USA) as described by the manufacturer to produce a suspension of cells at approximately 1.5 x 10^8 colony forming units (CFU)/mL [34–36] and a further dilution (1:1000) was made into cation adjusted Mueller-Hinton broth (CAMH broth, Becton-Dickinson). One hundred μL of this inoculum were then transferred to each well of the 96-well plate containing diluted compound (above). Plates were covered and incubated overnight (18 hrs.) at 37°C.

The subject of assay [2] is E. coli BW25113 ΔtolC. Description: Broth microdilution MIC, E. coli BW25113 ΔtolC. The format is cell-based. Conditions: Escherichia coli.
Description: as §1, §2
The yacG deletion allele from the Keio collection was amplified by PCR (primers: […] and […]) and moved to BW25113 ΔtolC as described below. The E. coli strain BW25113 ΔtolC containing pKD46 [25] was used to inoculate SOB (Invitrogen)/0.2% w/v arabinose (Sigma Aldrich)/ampicillin (100 μg/mL) and grown overnight at 30°C. The overnight culture was then diluted 1/40 into 20 mL fresh SOB/0.2% w/v arabinose/ampicillin (100 μg/mL) and grown at 30°C while shaking for ~3 hrs until OD600 = 0.5. […]

Assay [3] concerns E. coli BW25113 ΔtolC/ΔyacG. Description: Broth microdilution MIC, E. coli BW25113 ΔtolC/ΔyacG. Type of assay: cell-based. The procedure: as §2
The yacG deletion allele from the Keio collection was amplified by PCR (primers: […] and […]) and moved to BW25113 ΔtolC as described below. The E. coli strain BW25113 ΔtolC containing pKD46 [25] was used to inoculate SOB (Invitrogen)/0.2% w/v arabinose (Sigma Aldrich)/ampicillin (100 μg/mL) and grown overnight at 30°C. The overnight culture was then diluted 1/40 into 20 mL fresh SOB/0.2% w/v arabinose/ampicillin (100 μg/mL) and grown at 30°C while shaking for ~3 hrs until OD600 = 0.5. Cells were pelleted by centrifugation at 4000 rpm for 10 min, washed with 40 mL ice cold sterile, distilled H2O, then 3 x 1 mL ice cold 10% glycerol followed by centrifugation at 5000 g for 3 minutes. The pellet was resuspended in 100 μL of 10% glycerol (1/200 of starting culture). For transformation, 5 μL of gel purified PCR product was added to 50 μL cells, mixed, and immediately electroporated in a 0.2 cm gap cuvette at 2.5kV, 25 μF, 200 Ω (BioRad, Hercules, CA USA). Electroporated cells were recovered in 1 mL SOC (Invitrogen)/0.2% arabinose at 37°C for 2 hours with shaking. Cells in amounts of 50 and 950 μL were then plated on LB agar supplemented with kanamycin (25 μg/mL) and incubated overnight at 37°C. Correct gene replacements were verified by PCR.
(In broth dilution the organism is exposed to a series of concentrations in liquid medium.)

The target of assay [4] is T1, E. coli DNA gyrase (Escherichia coli, UniProt P0AES6).
T1 construct: purchased New England Biolabs, Beverly, MA
Description: Cleavage complex stabilization gel assay. The format is biochemical. Conditions: supercoiled pUC19. The method, then:
Cleavage complex stabilization was detected by assembling a gyrase reaction, as above, containing 0.4μL compound (in 100% DMSO), 12.5 μL H2O, 4 μL 5X buffer, 0.4 μL supercoiled pUC19 DNA substrate (0.4 μg), 3 μL gyrase (15 U). The reaction was incubated at 25°C for 60 min. after which 3 μL 2% SDS and 3 μL 1 mg/mL proteinase K were added. […] DNA in the gel was illuminated with UV light and photographed as above.

The subject of assay [5] is DNA synthesis in E. coli JL553. Description: Macromolecule synthesis labeling. Type of assay: cell-based. Conditions: E. coli JL553, 25 min exposure, labeled precursor incorporation. The method, then:
Macromolecule synthesis profiling was conducted as described by Montgomery, et al. with minor modifications. E. coli strain JL553 (tolC, lysE) was used to measure inhibition of DNA, RNA, protein, peptidoglycan and phospholipid biosynthesis while E. coli MB5500 (lpxC [envA1], galE; Merck & Co., Inc., Kenilworth, NJ, USA, strain collection) was used to measure inhibition of lipopolysaccharide biosynthesis. Radioisotope labeled precursors were used at the following final concentrations [2-^14C]-thymidine (2.5 μCi/mL), [^14C(U)]-uridine (0.5 μCi/mL), L-[4, 5-^3H]-leucine (5 μCi/mL), [2-^3H]-glycerol (2 μCi/mL), [^3H]-diaminopimelic acid (3 μCi/mL), D-[1-^14C]-galactose (0.5 μCi/mL). Compound concentrations (3-fold serial dilutions) were chosen to place the minimum inhibitory concentration (see below) near the center of the dose range. Labeled cultures were incubated with compound for 25 min; stopped with trichloroacetic acid, filtered and incorporation was measured as described. Percent inhibition of incorporation was calculated relative to an untreated control culture for each labeled precursor and plotted with GraphPad Prism.

Assay [6] addresses T2, S. aureus DNA gyrase (Staphylococcus aureus, UniProt P0A0K8).
T2 construct: purchased TopoGEN, Inc
Description: S. aureus DNA gyrase supercoiling reaction. Conditions: maximum achievable concentration (200 μM), pHOT-1 supercoiling. The format is biochemical.

In brackets after ≈: the same amount, converted by molar mass.

T2 sequence (P0A0K8 whole entry): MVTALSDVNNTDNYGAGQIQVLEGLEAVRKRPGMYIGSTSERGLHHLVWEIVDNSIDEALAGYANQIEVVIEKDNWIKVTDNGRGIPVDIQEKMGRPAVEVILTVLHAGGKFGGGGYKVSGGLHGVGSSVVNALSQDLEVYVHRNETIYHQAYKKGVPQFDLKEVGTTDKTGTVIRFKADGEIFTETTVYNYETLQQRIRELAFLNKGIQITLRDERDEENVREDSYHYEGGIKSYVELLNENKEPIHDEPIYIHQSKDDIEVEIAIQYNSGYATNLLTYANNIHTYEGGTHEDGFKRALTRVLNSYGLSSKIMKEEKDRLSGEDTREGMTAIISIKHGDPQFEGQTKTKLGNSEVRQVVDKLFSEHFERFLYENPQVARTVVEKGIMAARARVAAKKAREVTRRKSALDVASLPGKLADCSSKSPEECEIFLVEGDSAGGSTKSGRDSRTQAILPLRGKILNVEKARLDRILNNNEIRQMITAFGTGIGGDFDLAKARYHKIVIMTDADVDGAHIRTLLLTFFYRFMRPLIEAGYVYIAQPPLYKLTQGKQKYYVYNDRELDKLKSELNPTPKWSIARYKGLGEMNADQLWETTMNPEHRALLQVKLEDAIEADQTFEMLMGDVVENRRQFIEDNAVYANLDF
T2 sequence (P20831 whole entry, further chain): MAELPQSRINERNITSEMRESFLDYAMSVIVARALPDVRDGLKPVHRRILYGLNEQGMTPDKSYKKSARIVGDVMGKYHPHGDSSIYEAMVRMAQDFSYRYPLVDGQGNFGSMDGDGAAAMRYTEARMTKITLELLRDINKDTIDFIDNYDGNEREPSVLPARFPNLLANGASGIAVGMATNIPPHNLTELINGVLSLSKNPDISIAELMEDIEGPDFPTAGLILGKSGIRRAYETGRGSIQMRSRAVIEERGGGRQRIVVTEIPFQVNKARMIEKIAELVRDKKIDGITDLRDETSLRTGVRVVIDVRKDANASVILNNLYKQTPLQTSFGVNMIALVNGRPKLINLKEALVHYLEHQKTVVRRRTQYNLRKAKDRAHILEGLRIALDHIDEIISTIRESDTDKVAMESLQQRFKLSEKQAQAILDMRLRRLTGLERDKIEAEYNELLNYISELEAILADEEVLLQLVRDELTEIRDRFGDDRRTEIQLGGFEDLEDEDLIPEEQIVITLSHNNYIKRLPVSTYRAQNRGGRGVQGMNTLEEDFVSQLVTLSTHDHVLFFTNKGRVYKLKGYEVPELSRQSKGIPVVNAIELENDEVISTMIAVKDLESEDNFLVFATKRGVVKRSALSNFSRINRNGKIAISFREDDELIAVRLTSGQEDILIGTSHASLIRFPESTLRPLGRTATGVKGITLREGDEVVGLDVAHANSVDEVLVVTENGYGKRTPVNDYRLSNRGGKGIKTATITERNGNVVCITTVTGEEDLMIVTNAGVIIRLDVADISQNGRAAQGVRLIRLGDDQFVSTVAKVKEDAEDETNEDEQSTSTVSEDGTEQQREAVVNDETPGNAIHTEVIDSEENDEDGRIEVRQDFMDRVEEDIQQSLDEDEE

As to `Cn1ncc2cc(-c3cnnn3C3CCN(C(=O)Nc4cc(Cl)cc(Cl)c4)CC3)ccc21` [MRL-423], in assay [1] (E. coli HS151 with plasmid qnrVC3 vs HS151), the “resistance conferred by qnrVC3 expression” value is “no effect”. The minimal inhibitory concentration (MIC) (commonly the smallest concentration in the dilution series that meets the test's criterion for growth inhibition) in assay [1] (Escherichia coli) is 0.25 µg/mL (≈ 0.532 µM); in assay [2], 0.25 µg/mL (≈ 0.532 µM); in assay [3] (Escherichia coli, BW25113), 0.25 µg/mL (≈ 0.532 µM). Also, the “effect of deletion of yacG on potency” value in assay [3] (E. coli BW25113 (ΔtolC) ΔyacG) is “does not affect the potency”. Besides, the cleavage complex stabilization entry in assay [4] is on record as “stabilizes cleavage complex formation in a dose-dependent fashion”.

On to `COc1ccc(C)cc1NC(=O)N1CCC(n2nncc2-c2ccc3c(cnn3C)c2)CC1` [MRL-770], for which the “inhibition of macromolecule synthesis” value in assay [5] is “selective and reproducible inhibition of DNA synthesis”.

In the case of `Cn1ncc2cc(-c3nnnn3C3CCN(C(=O)Nc4ccc(Cl)c(Cl)c4)CC3)ccc21` [MRL-1082], the “activity against S. aureus DNA gyrase” value in assay [6] was “does not inhibit”.
